Data: US11116804B2, “Modulation of the gut microbiome to treat mental disorders or diseases of the central nervous system” (Holobiome, Inc., priority 2016, dated 2021)
“Also recorded” adds a separate entry of the source.

How the values were obtained:
E. gabavorous KLE1738 = assay: Growth induction of E. gabavorous by compounds spotted on FAAy plates; type: cell-based, Evtepia gabavorous; details: 5 μL of stock spotted on FAAy plates spread with E. gabavorous, anaerobic, one week
Method: Stocks of each compound (purchased from Sigma, excluding the ATCC Mineral and Vitamin mixes) were prepared dependent on solubility in water at the concentrations shown in FIG. 2G. Five μL of the stocks were then spotted on FAAy plates spread with E. gabavorous, and incubated anaerobically for one week, and any growth was observed.

[1] = in mice; cited from earlier work
[2] = in rodents; cited from earlier work

Row | SMILES | growth induction of E. gabavorous by spotted compound (E. gabavorous KLE1738) | half-life [1] [min] | brain efflux rate relative to influx rate [2] [times]
1 | NCCCC(=O)O [GABA, gamma-aminobutyric acid] | capable of inducing growth of E. gabavorous KLE1738; also recorded: caused growth induction; also recorded: induced growth | 17 | 17
2 | C[C@H](N)C(=O)O [alanine] | only GABA caused growth induction |  | 
3 | NC(=O)CC[C@H](N)C(=O)O [glutamine] | only GABA caused growth induction |  | 
4 | CC(O)C(=O)O (stereo not shown) [lactic acid] | only GABA caused growth induction |  | 
5 | O=C(O)CC(=O)O [malonic acid] | only GABA caused growth induction |  | 
6 | O=C(O)CCC(=O)O [succinic acid] | only GABA caused growth induction |  | 
7 | C[C@@H](O)[C@H](N)C(=O)O [threonine] | only GABA caused growth induction |  | 
8 | CC(C)[C@H](N)C(=O)O [valine] | only GABA caused growth induction |  | 
